Measured values: patent EP1234878A1, “USE OF DISEASE-ASSOCIATED GENE” (Takeda Chemical Industries, Ltd., priority 1999, dated 2001)

System: human CLCA1 protein, SEQ ID NO: 2 (human CLCA1 expressing CHO cells)
Experiment: Cl- ion secretion assay using human CLCA1-expressing CHO cells (MEQ fluorescence, ionomycin stimulation)
Assay type: cell-based
Settings: anionic transport inhibitor added at 200 µM or 10 µM (FIG. 11), room temperature for 30 minutes, then ionomycin 10 µM; Cl- ion fluorescence indicator MEQ
Procedure: Human CLCA1-expressing plasmid pcDNA-hCLCA1 shown in EXAMPLE 6 was transfected to CHO cells using Gene transfer lyo (manufactured by Wako Pure Chemical Industries, Ltd.) in accordance with the attached manual. The cells were subjected to selective culture for 10 days in MEM-α medium (manufactured by GIBCO BRL) supplemented with 1 mg/ml of neomycin (G418) (manufactured by GIBCO BRL) to obtain the cells grown as human CLCA1 expressing CHO cells. The human CLCA1 expressing CHO cells and parent CHO cells were seeded on a 96-well plate (manufactured by Packard Inc.) coated with 2 µg/ml of fibronectin (manufactured by Itoham Foods, Inc.), respectively, in a concentration of 4 x 10^4 cells/well, followed by culturing at 37°C for 24 hours under 5% CO2. After completion, the culture solution was washed once with a buffer solution containing no Cl^- ions (2.4 mM K2HPO4, 0.6 mM KH2PO4, 10 mM D-glucose, 1 mM MgSO4, 1 mM CaSO4, 135 mM NaNO3, 10 mM HEPES, pH 7.4), and 1 mM of Cl^- ion fluorescence indicator 6-methoxy-N-ethylquinolinium iodide (MEQ, manufactured by Moelcular Probes, Inc.) was added in an amount of 100 µl/well to the culture solution, followed by incubation at 37°C for further 2 hours. The culture solution was further washed twice with a Cl^- ion-containing buffer solution (2.4 mM K2HPO4, 0.6 mM KH2PO4, 10 mM D-glucose, 1 mM MgSO4, 1 mM CaSO4, 135 mM NaCl, 10 mM HEPES, pH 7.4), and then allowed to stand at room temperature for 30 minutes. Each well was replaced by the buffer solution containing no Cl^- ions and ionomycin was added to make the concentration of 10 µM. Immediately thereafter, the fluorescence intensity was measured at an excited wavelength of 355 nm and a measurement wavelength of 460 nm, usingamulti-label counter Wallac1420ARVOsx (manufactured by Amersham Pharmacia Biotech).
When stimulated with 10 µM ionomycin (manufactured by Wako Pure Chemical Industries, Inc.), the fluorescence intensity increased in human CLCA1 expressing CHO cells by about twice, as compared to the parent CHO cells (FIG. 10). […]

Compound	increase of the fluorescence intensity by ionomycin stimulation of human CLCA1 expressing CHO cells
O[C@H](CS)[C@H](O)CS (racemic) [dithiothreitol]	suppressed
O=S(=O)(O)c1cc(N=C=S)ccc1C=Cc1ccc(N=C=S)cc1S(=O)(=O)O [4,4'-diisothiocyanastilbene-2,2'-disulfonic acid]	suppressed
O=C(O)c1cccnc1Nc1cccc(C(F)(F)F)c1 [niflumic acid]	suppressed
